In assay [1] the target is T1, PIKFYVE (Homo sapiens, UniProt Q9Y2I7). Description: PIKFYVE assay (luciferase ADP-Glo kinase assay, Promega). In kind it is biochemical. The method, then: The activity of Compounds 1-20 was measured using a PIKFYVE assay (luciferase ADP-Glo kinase assay available from Promega Corp. of Madison, Wis.).
The activity of Compounds 39-90 was also measured using a PIKFYVE assay (luciferase ADP-Glo kinase assay available from Promega Corp. of Madison, Wis.).
The activity of Compounds 93-347 was also measured using a PIKFYVE assay (luciferase ADP-Glo kinase assay available from Promega Corp. of Madison, Wis.).
A general note: In ADP-Glo the light output rises with the ADP produced.

The target in assay [2] is T1, PIKFYVE. Briefly: Cell-based Pikfyve inhibition activity assay (EEA1 staining, mean vesicle size in BJ fibroblast cells). To be noted: Table 4, 4 hours treatment, 3 μM Apilimod = 100% inhibition. The method, then: BJ fibroblast cells were obtained from American Type Cell Culture (ATCC, CRL-2522). The cells were maintained in DMEM (Genesee Scientific, 25-500) supplemented with 10% fetal bovine serum (Genesee Scientific, 25-514) and 1% penicillin-streptomycin (Genesee Scientific, 25-512) at 37° C. in the atmosphere 5% CO2. BJ fibroblasts were plated into black flat clear bottom 96-well plates (Grenier, 655090) at a density of 3×10^3 per well and were allowed to attach in culture for 8-10 hours before drug treatment. Drugs were tested at eleven doses separated by 3 fold from 0.03 nM to 3000 nM in triplicates for 4 hours at 37° C. After 4 hours, treatment media was aspirated and replaced with 4% Paraformaldehyde (Electron Microscopy Science, 15714-S) and cells were fixed at room temperature for 5 minutes. 4% PFA in wells were then discarded and replaced with a blocking buffer consisting of 1×PBS with 0.1% Tween (Sigma-Aldrich, P1754-500), 5% Donkey Serum (Jackson ImmunoResearch, 017-000-121), and 1% BSA (Caisson Labs, B005-50GM) and incubated at room temperature for 30 minutes. Blocking buffer was then discarded and replaced with a primary EEA1 antibody (Fisher Scientific, BD610457) in a 1:1000 dilution and incubated at 4° C. overnight. Following overnight incubation, plates were washed with 1×PBS three times and incubated with secondary antibody Donkey anti-Mouse IgG, Alexa Fluor 555 (Invitrogen, A31570) (1:1000 dilution) for 1 hour at room temperature in the dark. Subsequently cell plates were washed with 1×PBS three times and can be stored at 4° C. if not being proceeding with imaging procedure.
Images were acquired with 20× objective (ImageXpress MicroConfocal, Molecular Devices) creating z-series of 5 planes (5 steps, […]), 16 tiles per well. Images were then analyzed using a custom CellProfiler protocol to obtain mean vesicle size. The mean vesicle size from 16 images was used as the output for each well. The mean vesicle size from 0.5% DMSO treated condition was considered as having no Pikfyve inhibition activity and the 3 μM Apilimod treated condition was considered as having 100% inhibition activity. The mean vesicle size was converted to % inhibition activity and the data was fitted to a dose-response curve using log(inhibitor) vs normalized response-variable slope using GraphPad Prism.

Broadly, the IC50 is the concentration that inhibits the measured activity by half. A higher IC50 goes with lower potency. In general, EC50 refers to the concentration giving half of the maximal effect. A low value points to a more potent agent.

T1 sequence (Q9Y2I7 whole entry): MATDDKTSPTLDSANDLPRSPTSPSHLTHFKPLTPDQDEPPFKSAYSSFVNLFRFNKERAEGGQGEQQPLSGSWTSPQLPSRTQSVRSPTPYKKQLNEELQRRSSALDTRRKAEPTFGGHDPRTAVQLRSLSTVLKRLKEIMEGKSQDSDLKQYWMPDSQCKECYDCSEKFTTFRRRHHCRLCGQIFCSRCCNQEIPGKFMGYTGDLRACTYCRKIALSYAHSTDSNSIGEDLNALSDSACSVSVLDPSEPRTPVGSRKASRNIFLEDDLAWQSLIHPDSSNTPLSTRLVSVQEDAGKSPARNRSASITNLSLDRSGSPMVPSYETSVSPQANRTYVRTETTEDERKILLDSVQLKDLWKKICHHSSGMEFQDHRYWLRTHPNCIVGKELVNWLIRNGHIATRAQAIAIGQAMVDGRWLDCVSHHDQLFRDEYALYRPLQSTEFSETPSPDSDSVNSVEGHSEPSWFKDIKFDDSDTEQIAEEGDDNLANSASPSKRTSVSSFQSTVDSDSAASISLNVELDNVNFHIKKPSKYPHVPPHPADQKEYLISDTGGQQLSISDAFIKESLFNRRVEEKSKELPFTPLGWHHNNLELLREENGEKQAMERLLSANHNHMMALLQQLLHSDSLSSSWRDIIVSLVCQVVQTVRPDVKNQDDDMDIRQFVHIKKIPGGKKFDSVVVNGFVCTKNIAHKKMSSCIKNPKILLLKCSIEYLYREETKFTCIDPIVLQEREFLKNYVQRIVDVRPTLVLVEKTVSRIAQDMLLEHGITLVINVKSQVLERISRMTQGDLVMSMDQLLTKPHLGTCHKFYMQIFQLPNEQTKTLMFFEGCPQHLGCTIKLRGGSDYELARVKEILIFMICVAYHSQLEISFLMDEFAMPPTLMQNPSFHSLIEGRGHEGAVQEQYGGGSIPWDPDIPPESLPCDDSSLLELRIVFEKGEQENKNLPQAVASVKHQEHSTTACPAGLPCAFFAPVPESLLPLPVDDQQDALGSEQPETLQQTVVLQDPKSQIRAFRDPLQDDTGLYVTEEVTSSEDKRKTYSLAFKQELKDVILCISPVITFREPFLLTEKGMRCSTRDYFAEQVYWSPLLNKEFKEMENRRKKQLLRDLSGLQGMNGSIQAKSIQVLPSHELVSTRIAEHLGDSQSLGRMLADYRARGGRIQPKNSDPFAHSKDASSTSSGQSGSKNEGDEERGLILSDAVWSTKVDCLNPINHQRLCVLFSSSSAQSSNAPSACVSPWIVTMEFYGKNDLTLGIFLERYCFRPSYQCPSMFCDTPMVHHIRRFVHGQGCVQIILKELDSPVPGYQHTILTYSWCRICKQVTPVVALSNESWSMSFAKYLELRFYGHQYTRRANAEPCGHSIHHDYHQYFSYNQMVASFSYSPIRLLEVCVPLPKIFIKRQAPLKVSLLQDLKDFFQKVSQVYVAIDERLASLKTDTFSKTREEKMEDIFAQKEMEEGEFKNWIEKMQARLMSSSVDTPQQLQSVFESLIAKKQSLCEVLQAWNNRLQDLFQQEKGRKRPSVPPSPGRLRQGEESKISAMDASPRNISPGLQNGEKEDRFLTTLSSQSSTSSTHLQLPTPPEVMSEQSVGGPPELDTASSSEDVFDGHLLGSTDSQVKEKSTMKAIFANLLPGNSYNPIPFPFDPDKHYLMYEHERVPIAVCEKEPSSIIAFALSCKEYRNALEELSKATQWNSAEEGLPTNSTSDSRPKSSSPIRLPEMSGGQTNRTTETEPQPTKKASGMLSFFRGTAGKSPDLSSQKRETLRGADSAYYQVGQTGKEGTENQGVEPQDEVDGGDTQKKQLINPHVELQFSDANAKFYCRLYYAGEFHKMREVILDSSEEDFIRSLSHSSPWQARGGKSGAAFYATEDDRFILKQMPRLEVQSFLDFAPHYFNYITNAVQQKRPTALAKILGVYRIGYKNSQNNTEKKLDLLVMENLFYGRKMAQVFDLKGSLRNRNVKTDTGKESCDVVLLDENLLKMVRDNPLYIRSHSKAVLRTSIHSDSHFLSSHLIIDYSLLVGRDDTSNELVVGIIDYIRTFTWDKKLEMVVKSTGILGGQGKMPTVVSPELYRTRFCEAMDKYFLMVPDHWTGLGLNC

Compound `CC#CCOc1nc(N2CCOCC2)cc(-n2ccc(-c3cccc(C)c3)n2)n1` [Compound 103, 4-(2-(but-2-yn-1-yloxy)-6-(3-(m-tolyl)-1H-pyrazol-1-yl)pyrimidin-4-yl)morpholine] returned an IC50 against PIKFYVE [1] (Table 3) of 3 to 10 nM. The compound further displayed an EC50 at PIKFYVE [2] of 100 to 500 nM.
Consider `Cc1cccc(-c2ccn(-c3cc(N4CCOCC4)nc(OC(CN(C)C)c4ccccc4)n3)n2)c1` (stereo not drawn) [Compound 113, N,N-dimethyl-2-((4-morpholino-6-(3-(m-tolyl)-1H-pyrazol-1-yl)pyrimidin-2-yl)oxy)-2-phenylethan-1-amine], for which, at PIKFYVE [1] (Table 3), the IC50 is under 3 nM. The EC50 on PIKFYVE [2] is 100 to 500 nM.
In turn, `COC(CO)c1nc(N2CCOCC2)cc(-n2nc(-c3c[nH]c4ccccc34)cc2C)n1` (single isomer, unassigned) [Compound 260, 2-(4-(3-(1H-indol-3-yl)-5-methyl-1H-pyrazol-1-yl)-6-morpholinopyrimidin-2-yl)-2-methoxyethan-1-ol] registered an IC50 against PIKFYVE [1] (Table 3) of under 3 nM. Moreover, the concentration giving a half-maximal response (EC50) on PIKFYVE [2] is under 20 nM.
For `COC(CC#N)c1nc(N2CCOCC2)cc(-n2ccc(-c3ccccc3)n2)n1` (stereo not drawn) [Compound 182, 3-methoxy-3-(4-morpholino-6-(3-phenyl-1H-pyrazol-1-yl)pyrimidin-2-yl)propanenitrile] the same measures were 10 to 100 nM and 500 to 5000 nM.
For `Cc1cccc(-c2cc([C@@H](C)O)n(-c3cc(N4CCOCC4)nc(OCCc4cnn(C)c4)n3)n2)c1` (single isomer, unassigned) [Compound 314] the same measures were under 3 nM and under 20 nM.
For `COCc1cccc(-c2ccn(-c3cc(N4CCOCC4)nc(OCCc4cnn(C)c4)n3)n2)c1` [Compound 200, 4-(6-(3-(3-(methoxymethyl)phenyl)-1H-pyrazol-1-yl)-2-(2-(1-methyl-1H-pyrazol-4-yl)ethoxy)pyrimidin-4-yl)morpholine] the same measures were under 3 nM and under 20 nM.
`CC(=O)c1nc(N2CCOCC2)cc(-n2ccc(-c3cccc(C)c3)n2)n1` [Compound 88, 1-(4-morpholino-6-(3-(m-tolyl)-1H-pyrazol-1-yl)pyrimidin-2-yl)ethan-1-one] came in with an IC50 against PIKFYVE [1] (Table 2) of under 5 nM. On PIKFYVE [2], this compound came in with a concentration for a half-maximal effect (EC50) of 100 to 500 nM.
On PIKFYVE [1] (Table 3), `Cc1cccc(-c2ccn(-c3cc(N4CCOCC4)nc(CCc4ccnn4C)n3)n2)c1` [Compound 338, 4-(2-(2-(1-methyl-1H-pyrazol-5-yl)ethyl)-6-(3-(m-tolyl)-1H-pyrazol-1-yl)pyrimidin-4-yl)morpholine] registered a concentration for half-maximal inhibition (IC50) of 3 to 10 nM. Besides, at PIKFYVE [2], the concentration giving a half-maximal response (EC50) was over 5000 nM.
For `Cc1cccc(-c2ccn(-c3cc(N4CCOCC4)nc(NC(=O)CC4CC4)n3)n2)c1` [Compound 188, 2-cyclopropyl-N-(4-morpholino-6-(3-(m-tolyl)-1H-pyrazol-1-yl)pyrimidin-2-yl)acetamide] the same measures were under 3 nM and 100 to 500 nM.
For `CCc1cccc(-c2ccn(-c3cc(N4CCOCC4)nc([C@@H](CO)OC)n3)n2)c1` [Compound 272, (S)-2-(4-(3-(3-ethylphenyl)-1H-pyrazol-1-yl)-6-morpholinopyrimidin-2-yl)-2-methoxyethan-1-ol] the same measures were 3 to 10 nM and 100 to 500 nM.
Turning to `Cn1cc(CCOc2nc(N3CCOCC3)cc(-n3ccc(C(=O)Nc4ccccc4)n3)n2)cn1` [Compound 64, 1-(2-(2-(1-methyl-1H-pyrazol-4-yl)ethoxy)-6-morpholinopyrimidin-4-yl)-N-phenyl-1H-pyrazole-3-carboxamide], the IC50 on PIKFYVE [1] (Table 2) is under 5 nM. At PIKFYVE [2], this compound displayed an EC50 of 20 to 100 nM.
Compound `Cn1nccc1CC(O)c1nc(N2CCOCC2)cc(-n2ccc(-c3ccccc3)n2)n1` (stereo not drawn) [Compound 201, 2-(1-methyl-1H-pyrazol-5-yl)-1-(4-morpholino-6-(3-phenyl-1H-pyrazol-1-yl)pyrimidin-2-yl)ethan-1-ol] registered an IC50 on PIKFYVE [1] (Table 3) of 10 to 100 nM. In addition, the EC50 on PIKFYVE [2] lay within 500 to 5000 nM.
For `CO[C@@H](C)c1cccc(-c2ccn(-c3cc(N4CCOCC4)nc(OCCc4cnn(C)c4)n3)n2)c1` (single isomer, unassigned) [Compound 341] the same measures were under 3 nM and under 20 nM.
On the same counts, the results for `COC(Cc1ccccc1)c1nc(N2CCOCC2)cc(-n2ccc(-c3ccccc3)n2)n1` (stereo not drawn) [Compound 177, 4-(2-(1-methoxy-2-phenylethyl)-6-(3-phenyl-1H-pyrazol-1-yl)pyrimidin-4-yl)morpholine] are 10 to 100 nM and 500 to 5000 nM.
On the same counts, the results for `Cc1cccc(-c2ccn(-c3cc(N4CCOCC4)nc(OCC4CC4)n3)n2)c1` [Compound 101, 4-(2-(cyclopropyl-methoxy)-6-(3-(m-tolyl)-1H-pyrazol-1-yl)pyrimidin-4-yl)morpholine] are 3 to 10 nM and 100 to 500 nM.
On to `Cn1cc(CCOc2nccc(N3CCOCC3)n2)cn1` [Compound 173, 4-(2-(2-(1-methyl-1H-pyrazol-4-yl)ethoxy)pyrimidin-4-yl)morpholine], for which the IC50 against PIKFYVE [1] (Table 3) was over 5000 nM. On PIKFYVE [2], this compound displayed an EC50 of over 5000 nM.
`COC(CO)c1nc(N2CCOCC2)cc(-n2ccc(-c3cccc(C)c3)n2)n1` (racemic) [Compound 156, 2-methoxy-2-(4-morpholino-6-(3-(m-tolyl)-1H-pyrazol-1-yl)pyrimidin-2-yl)ethan-1-ol]: the IC50 on PIKFYVE [1] (Table 3) is 3 to 10 nM. Also, the EC50 on PIKFYVE [2] lay in the range of 100 to 500 nM.
Consider `Cc1cccc(-c2ccn(-c3cc(N4CCOCC4)n4ncc(C)c4n3)n2)c1` [Compound 337, 4-(3-methyl-5-(3-(m-tolyl)-1H-pyrazol-1-yl)pyrazolo[1,5-a]pyrimidin-7-yl)morpholine], for which the IC50 on PIKFYVE [1] (Table 3) was in the range of 10 to 100 nM. The compound also displayed an EC50 on PIKFYVE [2] of 500 to 5000 nM.
For `Cn1ccc(COc2nc(N3CCOCC3)cc(-n3ccc(-c4ccccc4)n3)n2)n1` [Compound 115, 4-(2-((1-methyl-1H-pyrazol-3-yl)methoxy)-6-(3-phenyl-1H-pyrazol-1-yl)pyrimidin-4-yl)morpholine] the same measures were under 3 nM and 100 to 500 nM.
On the same counts, the results for `Cc1cccc(-c2ccn(-c3cc(N4CCOCC4)nc(NC(=O)Cc4cnn(C)c4)n3)n2)c1` [Compound 186, 2-(1-methyl-1H-pyrazol-4-yl)-N-(4-morpholino-6-(3-(m-tolyl)-1H-pyrazol-1-yl)pyrimidin-2-yl)acetamide] are under 3 nM and 100 to 500 nM.
In the case of `N#CCC(O)c1nc(N2CCOCC2)cc(-n2ccc(-c3ccccc3)n2)n1` (stereo not drawn) [Compound 181, 3-hydroxy-3-(4-morpholino-6-(3-phenyl-1H-pyrazol-1-yl)pyrimidin-2-yl)propanenitrile], the IC50 at PIKFYVE [1] (Table 3) lay within 10 to 100 nM. The compound also displayed an EC50 on PIKFYVE [2] of 500 to 5000 nM.
With `COC(=O)c1ccn(-c2cc(N3CCOCC3)nc(OCCc3cnn(C)c3)n2)n1` [Compound 70], on PIKFYVE [1] (Table 2), the 50% inhibitory concentration (IC50) fell in the range of 5 to 100 nM. On PIKFYVE [2], the EC50 is over 5000 nM.
Compound `CCO[C@@H](CO)c1nc(N2CCOCC2)cc(-n2ccc(-c3cccc(C)c3)n2)n1` (single isomer, unassigned) [Compound 312] displayed an IC50 on PIKFYVE [1] (Table 3) of 3 to 10 nM. This compound yielded an EC50 on PIKFYVE [2] of 100 to 500 nM.
For `C/C=C/COc1nc(N2CCOCC2)cc(-n2ccc(-c3cccc(C)c3)n2)n1` [Compound 102, (E)-4-(2-(but-2-en-1-yloxy)-6-(3-(m-tolyl)-1H-pyrazol-1-yl)pyrimidin-4-yl)morpholine] the same measures were under 3 nM and under 20 nM.
On the same counts, the results for `Cc1cccc(-c2ccn(-c3cc(N4CCOCC4)nc(COCc4cnn(C)c4)n3)n2)c1` [Compound 299, 4-(2-(((1-methyl-1H-pyrazol-4-yl)methoxy)methyl)-6-(3-(m-tolyl)-1H-pyrazol-1-yl)pyrimidin-4-yl)morpholine] are under 3 nM and 20 to 100 nM.
On to `Cc1ccc(C)c(-c2ccn(-c3cc(N4CCOCC4)nc(OCCc4cnn(C)c4)n3)n2)c1` [Compound 197, 4-(6-(3-(2,5-dimethylphenyl)-1H-pyrazol-1-yl)-2-(2-(1-methyl-1H-pyrazol-4-yl)ethoxy)pyrimidin-4-yl)morpholine], for which the IC50 against PIKFYVE [1] (Table 3) lay in the range of 3 to 10 nM. This compound also returned an EC50 at PIKFYVE [2] of 100 to 500 nM.
As for `COC(CO)(c1ccccc1)c1nc(N2CCOCC2)cc(-n2ccc(-c3cccc(C)c3)n2)n1` (stereo not drawn) [Compound 228, 2-methoxy-2-(4-morpholino-6-(3-(m-tolyl)-1H-pyrazol-1-yl)pyrimidin-2-yl)-2-phenylethan-1-ol], the IC50 against PIKFYVE [1] (Table 3) was under 3 nM. The compound further gave a concentration giving a half-maximal response (EC50) on PIKFYVE [2] of 100 to 500 nM.

Source of the values: patent US20230135152A1 (ACURASTEM INCORPORATED, priority 2020, published 2023).
